What was measured:
[1] = target: T1, Tyrosine-protein kinase JAK3 (Homo sapiens, UniProt P52333)
T1 sequence (P52333 whole entry): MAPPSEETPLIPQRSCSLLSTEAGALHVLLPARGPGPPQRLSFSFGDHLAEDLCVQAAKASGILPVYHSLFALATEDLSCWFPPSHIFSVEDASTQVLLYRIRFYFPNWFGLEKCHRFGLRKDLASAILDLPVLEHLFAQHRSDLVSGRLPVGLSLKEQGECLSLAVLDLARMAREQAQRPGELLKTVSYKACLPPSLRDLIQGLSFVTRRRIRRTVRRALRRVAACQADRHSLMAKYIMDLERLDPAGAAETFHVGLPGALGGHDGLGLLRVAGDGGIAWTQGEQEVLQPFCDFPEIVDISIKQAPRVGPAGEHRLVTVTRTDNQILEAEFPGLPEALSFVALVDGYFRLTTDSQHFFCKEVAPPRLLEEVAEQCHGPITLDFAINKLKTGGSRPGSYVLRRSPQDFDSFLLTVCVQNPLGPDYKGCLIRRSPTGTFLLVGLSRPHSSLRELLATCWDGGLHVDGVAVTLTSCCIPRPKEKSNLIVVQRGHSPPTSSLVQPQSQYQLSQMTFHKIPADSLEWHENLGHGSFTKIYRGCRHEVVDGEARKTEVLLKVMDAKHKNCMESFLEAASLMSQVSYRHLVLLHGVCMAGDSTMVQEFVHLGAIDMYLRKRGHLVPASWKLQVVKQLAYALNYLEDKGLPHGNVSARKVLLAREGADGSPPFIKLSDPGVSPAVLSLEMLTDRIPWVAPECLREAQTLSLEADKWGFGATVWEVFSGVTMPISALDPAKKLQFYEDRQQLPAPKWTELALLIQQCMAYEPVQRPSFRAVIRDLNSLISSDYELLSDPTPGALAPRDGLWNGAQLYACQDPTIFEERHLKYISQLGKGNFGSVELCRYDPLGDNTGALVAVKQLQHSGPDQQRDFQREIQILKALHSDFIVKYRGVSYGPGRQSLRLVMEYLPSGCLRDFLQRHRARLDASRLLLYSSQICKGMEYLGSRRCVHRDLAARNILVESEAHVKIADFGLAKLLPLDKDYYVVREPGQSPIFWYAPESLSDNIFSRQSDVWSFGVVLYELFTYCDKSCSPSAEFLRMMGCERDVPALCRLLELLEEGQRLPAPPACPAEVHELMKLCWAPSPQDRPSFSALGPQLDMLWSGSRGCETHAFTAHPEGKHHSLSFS
Description: Inhibition of JAK3 (unknown origin) using TK-substrate-biotin as substrate preincubated for 5 mins followed by substrate addition and measured by 30 mins by HTRF assay

[2] = target: Tyrosine-protein kinase JAK2 (Homo sapiens, UniProt O60674)
Description: Inhibition of JAK2 (unknown origin) using TK-substrate-biotin as substrate preincubated for 5 mins followed by substrate addition and measured by 30 mins by HTRF assay

[3] = target: Tyrosine-protein kinase JAK1 (Homo sapiens, UniProt P23458)
Description: Inhibition of JAK1 (unknown origin) using TK-substrate-biotin as substrate preincubated for 5 mins followed by substrate addition and measured by 30 mins by HTRF assay

[4] = Cmax in Sprague-Dawley rat at 2.5 mg/kg, iv after 2 mins to 24 hrs by LC-MS/MS analysis; assay type: ADME, organism-based; set-up: dose 2.5 mg/kg, route intravenous; settings: in vivo
[5] = AUC (0 to t) in Sprague-Dawley rat at 2.5 mg/kg, iv after 2 mins to 24 hrs by LC-MS/MS analysis; assay type: ADME, organism-based; set-up: time 0.033-24 hr, dose 2.5 mg/kg, route intravenous; settings: in vivo
[6] = Volume of distribution in Sprague-Dawley rat at 2.5 mg/kg, iv after 2 mins to 24 hrs by LC-MS/MS analysis; assay type: ADME, organism-based; settings: in vivo, read-out: Vz
[7] = Clearance in Sprague-Dawley rat at 2.5 mg/kg, iv after 2 mins to 24 hrs by LC-MS/MS analysis; assay type: ADME, organism-based; settings: in vivo
[8] = MRT (0 to t) in Sprague-Dawley rat at 2.5 mg/kg, iv after 2 mins to 24 hrs by LC-MS/MS analysis; assay type: ADME, organism-based; settings: in vivo
[9] = Half life in Sprague-Dawley rat at 2.5 mg/kg, iv after 2 mins to 24 hrs by LC-MS/MS analysis; assay type: ADME, organism-based; settings: in vivo
[10] = Oral bioavailability in Sprague-Dawley rat at 10 mg/kg after 2 mins to 24 hrs by LC-MS/MS analysis; assay type: ADME, organism-based; settings: in vivo
Rattus norvegicus [11] = assay type: functional
Rattus norvegicus [12] = assay type: functional; remark: listed apart in the source
hERG (KCNH2) [13] = target: T2, hERG (KCNH2) (Homo sapiens, UniProt Q12809); assay: Inhibition of human ERG at 0.3 uM relative to control
hERG (KCNH2) [14] = target: T2, hERG (KCNH2); assay: Inhibition of human ERG at 3 uM relative to control
hERG (KCNH2) [15] = target: T2, hERG (KCNH2); assay: Inhibition of human ERG at 30 uM relative to control
[16] = target: Voltage-gated inwardly rectifying potassium channel KCNH2 (Homo sapiens, UniProt Q12809); assay: Inhibition of human ERG
[17] = target: Non-receptor tyrosine-protein kinase TYK2 (Homo sapiens, UniProt P29597)
Description: Inhibition of Tyk2 (unknown origin)

[18] = rat, in vivo, po, 10 mg/kg
in vivo [19] = settings: Sprague-Dawley, rat, po, 10 mg/kg
in vivo [20] = settings: Sprague-Dawley, rat, po, 10 mg/kg; remark: listed apart in the source
in vivo [21] = settings: Sprague-Dawley, rat, po, 10 mg/kg; remark: listed apart in the source
in vivo [22] = settings: Sprague-Dawley, rat, po, 10 mg/kg; remark: listed apart in the source
in vivo [23] = settings: Sprague-Dawley, rat, po, 10 mg/kg; remark: listed apart in the source
in vivo [24] = settings: rat, po, 5 mg/kg

Chain of Tyrosine-protein kinase JAK2 (O60674 whole entry): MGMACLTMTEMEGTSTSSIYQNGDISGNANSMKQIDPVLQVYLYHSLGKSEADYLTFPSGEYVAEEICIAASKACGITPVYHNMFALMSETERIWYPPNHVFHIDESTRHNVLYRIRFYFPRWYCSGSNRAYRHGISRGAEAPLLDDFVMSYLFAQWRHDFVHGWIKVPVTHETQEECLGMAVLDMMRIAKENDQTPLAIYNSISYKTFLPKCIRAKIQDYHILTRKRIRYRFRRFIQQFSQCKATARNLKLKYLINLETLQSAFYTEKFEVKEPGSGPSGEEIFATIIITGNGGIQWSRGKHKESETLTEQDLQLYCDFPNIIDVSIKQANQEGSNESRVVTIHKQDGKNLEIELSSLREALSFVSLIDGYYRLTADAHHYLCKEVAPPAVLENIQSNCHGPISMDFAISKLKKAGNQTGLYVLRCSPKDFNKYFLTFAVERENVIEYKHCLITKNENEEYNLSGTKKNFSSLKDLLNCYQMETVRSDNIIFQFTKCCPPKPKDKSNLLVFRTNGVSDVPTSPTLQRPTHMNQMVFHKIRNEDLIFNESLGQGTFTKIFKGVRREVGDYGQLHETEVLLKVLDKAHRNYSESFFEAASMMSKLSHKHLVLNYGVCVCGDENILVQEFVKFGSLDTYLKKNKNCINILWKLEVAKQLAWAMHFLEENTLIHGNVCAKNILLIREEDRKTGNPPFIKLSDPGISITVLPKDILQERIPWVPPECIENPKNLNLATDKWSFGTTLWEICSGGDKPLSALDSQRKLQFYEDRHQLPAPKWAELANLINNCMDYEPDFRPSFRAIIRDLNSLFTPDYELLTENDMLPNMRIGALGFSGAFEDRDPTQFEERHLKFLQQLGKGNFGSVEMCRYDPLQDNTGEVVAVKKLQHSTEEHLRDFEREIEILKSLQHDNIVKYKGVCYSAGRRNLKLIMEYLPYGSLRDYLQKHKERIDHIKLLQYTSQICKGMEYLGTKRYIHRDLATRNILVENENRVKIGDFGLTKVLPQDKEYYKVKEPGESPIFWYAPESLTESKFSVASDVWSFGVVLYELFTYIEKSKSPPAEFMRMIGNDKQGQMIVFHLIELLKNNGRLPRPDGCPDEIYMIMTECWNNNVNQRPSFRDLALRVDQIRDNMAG
T2 sequence (Q12809 whole entry): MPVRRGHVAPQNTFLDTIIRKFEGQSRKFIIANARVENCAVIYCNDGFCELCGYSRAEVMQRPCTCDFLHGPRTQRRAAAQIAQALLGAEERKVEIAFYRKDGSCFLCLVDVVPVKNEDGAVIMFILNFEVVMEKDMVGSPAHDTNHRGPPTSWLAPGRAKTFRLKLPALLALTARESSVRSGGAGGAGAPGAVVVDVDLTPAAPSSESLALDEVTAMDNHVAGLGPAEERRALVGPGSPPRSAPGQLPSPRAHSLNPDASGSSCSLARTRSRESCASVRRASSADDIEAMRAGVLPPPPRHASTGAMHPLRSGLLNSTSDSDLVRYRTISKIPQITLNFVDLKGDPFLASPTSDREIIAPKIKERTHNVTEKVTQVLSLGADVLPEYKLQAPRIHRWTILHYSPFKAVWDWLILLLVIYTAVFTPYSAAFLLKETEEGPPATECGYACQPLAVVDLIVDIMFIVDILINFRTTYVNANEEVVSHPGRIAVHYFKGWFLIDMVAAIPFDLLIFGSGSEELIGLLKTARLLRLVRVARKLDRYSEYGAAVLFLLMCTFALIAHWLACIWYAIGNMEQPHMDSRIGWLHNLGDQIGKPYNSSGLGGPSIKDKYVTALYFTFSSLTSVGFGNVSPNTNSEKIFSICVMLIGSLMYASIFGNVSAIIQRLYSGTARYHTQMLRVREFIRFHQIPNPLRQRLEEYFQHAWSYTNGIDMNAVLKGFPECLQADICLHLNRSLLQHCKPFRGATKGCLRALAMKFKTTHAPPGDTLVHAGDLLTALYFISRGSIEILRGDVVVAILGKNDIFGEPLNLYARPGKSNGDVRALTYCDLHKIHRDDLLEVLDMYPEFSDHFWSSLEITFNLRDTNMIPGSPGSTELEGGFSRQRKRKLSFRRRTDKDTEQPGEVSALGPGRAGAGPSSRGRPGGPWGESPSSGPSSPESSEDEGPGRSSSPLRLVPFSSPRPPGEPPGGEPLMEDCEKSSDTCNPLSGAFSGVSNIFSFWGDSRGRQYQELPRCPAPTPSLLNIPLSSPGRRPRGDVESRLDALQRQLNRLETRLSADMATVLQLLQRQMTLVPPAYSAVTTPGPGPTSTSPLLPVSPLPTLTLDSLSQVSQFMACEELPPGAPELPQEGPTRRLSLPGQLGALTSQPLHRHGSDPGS
Chain of Tyrosine-protein kinase JAK1 (P23458 whole entry): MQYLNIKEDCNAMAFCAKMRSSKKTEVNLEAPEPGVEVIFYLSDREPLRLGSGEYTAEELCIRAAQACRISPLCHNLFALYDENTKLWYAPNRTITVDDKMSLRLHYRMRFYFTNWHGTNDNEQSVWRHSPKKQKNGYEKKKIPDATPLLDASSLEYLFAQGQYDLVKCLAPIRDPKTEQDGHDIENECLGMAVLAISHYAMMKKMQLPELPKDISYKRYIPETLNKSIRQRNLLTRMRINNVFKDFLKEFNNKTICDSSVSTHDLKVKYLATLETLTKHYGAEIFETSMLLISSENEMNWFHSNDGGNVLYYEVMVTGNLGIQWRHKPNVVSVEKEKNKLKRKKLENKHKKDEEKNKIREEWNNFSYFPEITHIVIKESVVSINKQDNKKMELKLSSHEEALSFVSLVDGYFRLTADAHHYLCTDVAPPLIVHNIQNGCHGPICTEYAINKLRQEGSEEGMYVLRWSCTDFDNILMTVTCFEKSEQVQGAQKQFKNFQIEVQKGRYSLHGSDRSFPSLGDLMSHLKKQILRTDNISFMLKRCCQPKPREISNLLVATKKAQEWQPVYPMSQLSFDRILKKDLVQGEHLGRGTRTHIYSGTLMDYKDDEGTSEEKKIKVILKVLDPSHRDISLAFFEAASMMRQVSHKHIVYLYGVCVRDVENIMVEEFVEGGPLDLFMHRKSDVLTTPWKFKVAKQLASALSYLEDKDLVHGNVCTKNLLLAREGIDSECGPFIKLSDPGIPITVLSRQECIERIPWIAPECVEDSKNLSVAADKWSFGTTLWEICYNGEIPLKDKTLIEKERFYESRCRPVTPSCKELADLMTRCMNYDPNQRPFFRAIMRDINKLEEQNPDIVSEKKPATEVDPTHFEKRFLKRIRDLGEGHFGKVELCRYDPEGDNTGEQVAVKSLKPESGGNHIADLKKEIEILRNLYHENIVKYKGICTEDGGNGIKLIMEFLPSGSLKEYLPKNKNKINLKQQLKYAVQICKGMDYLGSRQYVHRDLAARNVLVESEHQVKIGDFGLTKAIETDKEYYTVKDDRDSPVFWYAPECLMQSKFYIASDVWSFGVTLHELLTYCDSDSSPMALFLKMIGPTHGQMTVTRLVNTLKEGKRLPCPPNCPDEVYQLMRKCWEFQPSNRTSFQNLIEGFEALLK
Chain of Voltage-gated inwardly rectifying potassium channel KCNH2 (Q12809 whole entry): as the sequence (Q12809 whole entry) above

COc1cc(Nc2ncc(C)c(-c3cc4c(o3)CCN(C(=O)CC#N)C4)n2)cc(OC)c1OC
IC50 [1]: 12 nM | IC50 [2]: 1.6 nM

Cc1cnc(Nc2cc(F)c(N3CCOCC3)c(F)c2)nc1-c1cc2c(o1)CCN(C(=O)CC#N)C2
IC50 [1]: 88.1 nM | IC50 [2]: 4.2 nM

Cc1cnc(Nc2cccc(N3CCN(C)CC3)c2)nc1-c1cc2c(o1)CCN(S(C)(=O)=O)C2
IC50 [1]: 751 nM | IC50 [2]: 112 nM

Cc1cnc(Nc2ccccc2)nc1-c1cc2c(o1)CCN(S(C)(=O)=O)C2
IC50 [1]: 153 nM | IC50 [2]: 2.7 nM

Cc1cnc(Nc2cc(F)c(N3CCOCC3)c(F)c2)nc1-c1cc2c(o1)CCN(S(C)(=O)=O)C2
IC50 [1]: 195 nM | IC50 [2]: 3.7 nM

Cc1cnc(Nc2ccc(N3CCOCC3)cc2)nc1-c1cc2c(o1)CCN(C(=O)c1cccc(C#N)c1)C2
IC50 [1]: 552 nM | IC50 [2]: 35.4 nM

CCC(=O)N1CCc2oc(-c3nc(Nc4ccc(N5CCOCC5)cc4)ncc3C)cc2C1
IC50 [1]: 112 nM | IC50 [2]: 5.8 nM

Cc1cnc(Nc2ccc(-n3ccnc3)cc2)nc1-c1cc2c(o1)CCN(S(C)(=O)=O)C2
IC50 [1]: 91.3 nM | IC50 [2]: 10.8 nM

Cc1cnc(Nc2ccc(F)cc2)nc1-c1cc2c(o1)CCN(C(=O)CC#N)C2
IC50 [1]: 95.7 nM

Cc1cnc(Nc2ccc(OCCN3CCCC3)cc2)nc1-c1cc2c(o1)CCN(S(C)(=O)=O)C2
IC50 [1]: 56.7 nM | IC50 [2]: 4.1 nM

Cc1cnc(Nc2ccc(N3CCN(C)CC3)cc2)nc1-c1cc2c(o1)CCN(C(=O)CC#N)C2
IC50 [1]: 33.7 nM | IC50 [2]: 1.6 nM

Cc1cnc(Nc2ccc(N3CCOCC3)cc2)nc1-c1cc2c(o1)CCN(C(=O)C(C)C)C2
IC50 [1]: 32.4 nM | IC50 [2]: 6.4 nM

Cc1cnc(Nc2ccc(N3CCOCC3)cc2)nc1-c1cc2c(o1)CCN(C(=O)c1ccc(C#N)cc1)C2
IC50 [1]: 431 nM | IC50 [2]: 28.8 nM

Cc1cnc(Nc2ccc([N+](=O)[O-])cc2)nc1-c1cc2c(o1)CCN(C(=O)CC#N)C2
IC50 [1]: 275 nM | IC50 [2]: 14.2 nM

Cc1cnc(Nc2ccc(OCCN3CCCC3)cc2)nc1-c1cc2c(o1)CCN(C(=O)CC#N)C2
IC50 [1]: 52 nM | IC50 [2]: 9.6 nM

Cc1cnc(Nc2ccc(F)cc2)nc1-c1cc2c(o1)CCN(S(C)(=O)=O)C2
IC50 [1]: 5080 nM | IC50 [2]: 12.1 nM

Cc1cnc(Nc2ccccc2)nc1-c1cc2c(o1)CCN(C(=O)CC#N)C2
IC50 [1]: 94.7 nM | IC50 [2]: 2.9 nM

Cc1cnc(Nc2ccc(N3CCOCC3)cc2)nc1-c1cc2c(o1)CCN(C(=O)CC#N)C2
IC50 [1]: 7.6 to 13.5 nM | IC50 [3]: 5.1 nM | Cmax [4]: 2340 ng/mL | AUC(0-t) [5]: 1000 ng·h/mL | Vd [6]: 2 L/kg | clearance [7]: 42 mL/min/kg | MRT last [8]: 0.5 h | half-life [9]: 0.55 h | bioavailability [10]: 54.8% | Activity (Rattus norvegicus [11]): 14.1% | Activity (Rattus norvegicus [12]): 113.2% | inhibition at 0.3 µM (hERG (KCNH2) [13]): 1.9% | inhibition at 3 µM (hERG (KCNH2) [14]): 11.2% | inhibition at 30 µM (hERG (KCNH2) [15]): 16.4% | IC50 [16]: > 30000 nM | IC50 [2]: 0.5 to 0.7 nM | IC50 [17]: 3 nM | Vz [18]: 17.82 L/kg | CL/F (in vivo [19]): 71.8 mL/min/kg | Cmax (in vivo [20]): 540 ng/mL | AUC(0-t) (in vivo [21]): 2190 ng·h/mL | MRT last (in vivo [22]): 3.49 h | half-life (in vivo [23]): 2.91 h | AUC at 240 h (in vivo [24]): 1490 ng·h/mL

Source: ChEMBL document CHEMBL4340527, “Discovery of potent anti-inflammatory 4-(4,5,6,7-tetrahydrofuro[3,2-c]pyridin-2-yl) pyrimidin-2-amines for use as Janus kinase inhibitors” (Bioorg Med Chem, 2019)
